Measured values reported in PubChem BioAssay AID2060910 (Molecular Pharmacology Branch, DTP, NCI, 2025).

Test system: 242566-281-R-J2-PDC complex spheroid viability
Assay: Anticancer human tumor 242566-281-R-J2-PDC patient-derived pancreatic carcinoma cell line growth inhibition [RAS]
Conditions: for IC50: curve of first compound; for viability, T/C: stronger effect = lower value
How it was run: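 Agents were tested in combination matrices in half-log decrements from a top concentration at or near clinical Cmax (10 microM if undetermined). Targets were multi-cell spheroids of tumour lines plus HUVEC and MSC stromal cells.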
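Further: spheroids exposed to compound for 7 days before readout.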
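Wherever viability, T/C is given: 100% = DMSO vehicle control wells.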

## C=CC(=O)N1CCN(c2nc(OCC3CCCN3C)nc3c(F)c(-c4nc(N)cc(C)c4C(F)(F)F)c(Cl)cc23)C(C)C1 (configuration not stated) + C#Cc1c(F)ccc2cc(O)cc(-c3ncc4c(N5CC6CCC(C5)N6)nc(OCC56CCCN5CC(F)C6)nc4c3F)c12
Second compound 0.0316 µM
  IC50: > 1 µM
Second compound 0.1 µM
  IC50: > 1 µM
Second compound 0.316 µM
  IC50: > 1 µM
Second compound 1 µM
  IC50: > 1 µM
Second compound 3.16 µM
  IC50: 0.0299 µM
Second compound 10 µM
  IC50: > 1 µM
Second compound 0.0316 µM, first compound 0.00316 µM
  viability, T/C: 95.7%
Second compound 0.0316 µM, first compound 0.01 µM
  viability, T/C: 113%
Second compound 0.0316 µM, first compound 0.0316 µM
  viability, T/C: 95.9%
Second compound 0.0316 µM, first compound 0.1 µM
  viability, T/C: 66.7%
Second compound 0.0316 µM, first compound 0.316 µM
  viability, T/C: 71.1%
Second compound 0.0316 µM, first compound 1 µM
  viability, T/C: 91.7%
Second compound 0.1 µM, first compound 0.00316 µM
  viability, T/C: 83.9%
Second compound 0.1 µM, first compound 0.01 µM
  viability, T/C: 90.8%
Second compound 0.1 µM, first compound 0.0316 µM
  viability, T/C: 79.9%
Second compound 0.1 µM, first compound 0.1 µM
  viability, T/C: 57.2%
Second compound 0.1 µM, first compound 0.316 µM
  viability, T/C: 75.3%
Second compound 0.1 µM, first compound 1 µM
  viability, T/C: 76.5%
Second compound 0.316 µM, first compound 0.00316 µM
  viability, T/C: 80%
Second compound 0.316 µM, first compound 0.01 µM
  viability, T/C: 74.6%
Second compound 0.316 µM, first compound 0.0316 µM
  viability, T/C: 60.1%
Second compound 0.316 µM, first compound 0.1 µM
  viability, T/C: 62.3%
Second compound 0.316 µM, first compound 0.316 µM
  viability, T/C: 56.5%
Second compound 0.316 µM, first compound 1 µM
  viability, T/C: 63.3%
Second compound 1 µM, first compound 0.00316 µM
  viability, T/C: 60.6%
Second compound 1 µM, first compound 0.01 µM
  viability, T/C: 61.9%
Second compound 1 µM, first compound 0.0316 µM
  viability, T/C: 48.4%
Second compound 1 µM, first compound 0.1 µM
  viability, T/C: 50.7%
Second compound 1 µM, first compound 0.316 µM
  viability, T/C: 56.1%
Second compound 1 µM, first compound 1 µM
  viability, T/C: 61%
Second compound 3.16 µM, first compound 0.00316 µM
  viability, T/C: 56.4%
Second compound 3.16 µM, first compound 0.01 µM
  viability, T/C: 56.8%
Second compound 3.16 µM, first compound 0.0316 µM
  viability, T/C: 40.5%
Second compound 3.16 µM, first compound 0.1 µM
  viability, T/C: 51.1%
Second compound 3.16 µM, first compound 0.316 µM
  viability, T/C: 52.5%
Second compound 3.16 µM, first compound 1 µM
  viability, T/C: 54.5%
Second compound 10 µM, first compound 0.00316 µM
  viability, T/C: 51.2%
Second compound 10 µM, first compound 0.01 µM
  viability, T/C: 53.2%
Second compound 10 µM, first compound 0.0316 µM
  viability, T/C: 46.8%
Second compound 10 µM, first compound 0.1 µM
  viability, T/C: 48.6%
Second compound 10 µM, first compound 0.316 µM
  viability, T/C: 57.3%
Second compound 10 µM, first compound 1 µM
  viability, T/C: 53.4%
